In ChEMBL document CHEMBL3885861, “Open TG-GATES”:

Species: Rattus norvegicus
Assay: Open TG-GATES - Regimen: Daily Repeat
Assay type: toxicity, organism-based, Sprague-Dawley
Set-up: regimen Daily Repeat, gender Male, age 6 weeks
Conditions: in vivo, po, route gavage; for APTT / Bas / Eos / Fbg / Ht / Lym / MCH / MCHC / MCV / Mono / Neu / PT / Plat / RBC / Ret / WBC / Hb: tissue Blood; for KIDNEY_L / KIDNEY_R / KIDNEY_TOTAL: tissue Kidney; for LIVER: tissue Liver; for ALP / AST / BUN / CRE / Ca / Cl / DBIL / GLC / IP / LDH / Na / PL / RALB / TBIL / TC / TG / TP / gamma-GTP: tissue Plasma
[1] = 0 mg/kg, 72 h, dose level Control, time 3 day
[2] = 0 mg/kg, […], dose level Control, time 7 day
[3] = 0 mg/kg, […], dose level Control, time 14 day
[4] = 0 mg/kg, […], dose level Control, time 28 day
[5] = 10 mg/kg, 72 h, dose level Low, time 3 day
[6] = 10 mg/kg, […], dose level Low, time 7 day
[7] = 10 mg/kg, […], dose level Low, time 14 day
[8] = 10 mg/kg, […], dose level Low, time 28 day
[9] = 30 mg/kg, 72 h, dose level Middle, time 3 day

CC(=O)N1CCN(c2ccc(OCC3COC(Cn4ccnc4)(c4ccc(Cl)cc4Cl)O3)cc2)CC1 (configuration not stated) [KETOCONAZOLE]
TERMINAL_BW [1]: 231 g
APTT [1]: 20.9 s
Bas [1]: 0%
Eos [1]: 0.8%
Fbg [1]: 294.6 mg/dL
Ht [1]: 38.3%
Lym [1]: 82%
MCH [1]: 21.7 pg
MCHC [1]: 34.3%
MCV [1]: 63.3 fL
Mono [1]: 2.2%
Neu [1]: 14.2%
PT [1]: 16.5 s
Plat [1]: 118.7 x10_4/uL
RBC [1]: 604.8 x10_4/ul
Ret [1]: 6.5%
WBC [1]: 106.4 x10_2/uL
KIDNEY_L [1]: 1.1 g
KIDNEY_R [1]: 1.1 g
KIDNEY_TOTAL [1]: 2.1 g
LIVER [1]: 10.8 g
ALP [1]: 1650.6 IU/L
AST [1]: 68 IU/L
BUN [1]: 18.6 mg/dL
CRE [1]: 0.2 mg/dL
Ca [1]: 10.8 mg/dL
Cl [1]: 106.2 meq/L
DBIL [1]: 0 mg/dL
GLC [1]: 184.2 mg/dL
IP [1]: 5.9 mg/dL
LDH [1]: 222.4 IU/L
Na [1]: 140.2 meq/L
PL [1]: 142.6 mg/dL
RALB [1]: 3 g/dL
TBIL [1]: 0.012 mg/dL
TC [1]: 71 mg/dL
TG [1]: 85.2 mg/dL
TP [1]: 5.6 g/dL
gamma-GTP [1]: 1.4 IU/L
TERMINAL_BW [2]: 269.3 g
TERMINAL_BW [3]: 301.1 g
TERMINAL_BW [4]: 376.7 g
APTT [2]: 22.6 s
Bas [2]: 0%
Eos [2]: 1%
Fbg [2]: 301.6 mg/dL
Hb [2]: 13.6 g/dL
Ht [2]: 40.1%
Lym [2]: 78.4%
MCH [2]: 21.1 pg
MCHC [2]: 34%
Mono [2]: 2%
Neu [2]: 17.8%
PT [2]: 16.1 s
Plat [2]: 91.9 x10_4/uL
RBC [2]: 645.4 x10_4/ul
Ret [2]: 5.5%
WBC [2]: 94.3 x10_2/uL
APTT [3]: 22.2 s
Bas [3]: 0%
Eos [3]: 0.8%
Fbg [3]: 298 mg/dL
Hb [3]: 14 g/dL
Ht [3]: 40.9%
Lym [3]: 81.4%
MCH [3]: 20.5 pg
MCHC [3]: 34.3%
MCV [3]: 59.8 fL
Mono [3]: 1.6%
Neu [3]: 15.4%
PT [3]: 16.1 s
Plat [3]: 113.5 x10_4/uL
RBC [3]: 685 x10_4/ul
Ret [3]: 4.1%
WBC [3]: 110.9 x10_2/uL
Bas [4]: 0%
Eos [4]: 1%
Fbg [4]: 291.4 mg/dL
Hb [4]: 14.9 g/dL
Ht [4]: 43.4%
Lym [4]: 83.8%
MCH [4]: 19.1 pg
MCHC [4]: 34.3%
MCV [4]: 55.8 fL
Mono [4]: 1.6%
Neu [4]: 11.8%
PT [4]: 17 s
Plat [4]: 107.7 x10_4/uL
RBC [4]: 779.8 x10_4/ul
Ret [4]: 2.5%
WBC [4]: 126.2 x10_2/uL
KIDNEY_L [2]: 1.2 g
KIDNEY_R [2]: 1.2 g
KIDNEY_TOTAL [2]: 2.4 g
KIDNEY_L [3]: 1.1 g
KIDNEY_R [3]: 1.2 g
KIDNEY_TOTAL [3]: 2.3 g
KIDNEY_L [4]: 1.3 g
KIDNEY_R [4]: 1.4 g
KIDNEY_TOTAL [4]: 2.7 g
LIVER [2]: 12.2 g
LIVER [4]: 15.3 g
ALP [2]: 1766.8 IU/L
AST [2]: 69.2 IU/L
BUN [2]: 19 mg/dL
CRE [2]: 0.2 mg/dL
Ca [2]: 10.8 mg/dL
Cl [2]: 106.4 meq/L
DBIL [2]: 0 mg/dL
GLC [2]: 182.8 mg/dL
IP [2]: 6.7 mg/dL
LDH [2]: 176.2 IU/L
Na [2]: 141.8 meq/L
PL [2]: 156.8 mg/dL
RALB [2]: 3.2 g/dL
TBIL [2]: 0.002 mg/dL
TC [2]: 80.6 mg/dL
TG [2]: 102.8 mg/dL
TP [2]: 5.8 g/dL
gamma-GTP [2]: 1.2 IU/L
ALP [3]: 1657 IU/L
AST [3]: 71.2 IU/L
BUN [3]: 19 mg/dL
CRE [3]: 0.2 mg/dL
Ca [3]: 10.3 mg/dL
Cl [3]: 107.2 meq/L
DBIL [3]: 0 mg/dL
GLC [3]: 178.4 mg/dL
IP [3]: 6.4 mg/dL
LDH [3]: 207.6 IU/L
Na [3]: 142.4 meq/L
PL [3]: 167.6 mg/dL
RALB [3]: 3 g/dL
TBIL [3]: 0.002 mg/dL
TG [3]: 140.8 mg/dL
TP [3]: 5.8 g/dL
gamma-GTP [3]: 1 IU/L
ALP [4]: 1167.6 IU/L
AST [4]: 73.6 IU/L
BUN [4]: 19.6 mg/dL
CRE [4]: 0.2 mg/dL
Ca [4]: 10.3 mg/dL
Cl [4]: 106.8 meq/L
DBIL [4]: 0 mg/dL
GLC [4]: 190.2 mg/dL
IP [4]: 5.5 mg/dL
LDH [4]: 168.4 IU/L
Na [4]: 141.8 meq/L
PL [4]: 144.4 mg/dL
RALB [4]: 3.1 g/dL
TBIL [4]: 0.016 mg/dL
TC [4]: 66 mg/dL
TG [4]: 153.2 mg/dL
TP [4]: 6 g/dL
gamma-GTP [4]: 1.2 IU/L
TERMINAL_BW [5]: 236.3 g
APTT [5]: 19.5 s
Bas [5]: 0%
Eos [5]: 0.8%
Fbg [5]: 308.2 mg/dL
Hb [5]: 12.9 g/dL
Ht [5]: 37.7%
Lym [5]: 82.6%
MCH [5]: 21.8 pg
MCV [5]: 64 fL
Mono [5]: 2%
Neu [5]: 13.6%
PT [5]: 16.3 s
Plat [5]: 122.8 x10_4/uL
RBC [5]: 589.4 x10_4/ul
Ret [5]: 6.6%
WBC [5]: 82 x10_2/uL
KIDNEY_L [5]: 1 g
KIDNEY_R [5]: 1 g
KIDNEY_TOTAL [5]: 2.1 g
LIVER [5]: 11.3 g
ALP [5]: 1629.2 IU/L
AST [5]: 75 IU/L
BUN [5]: 18.2 mg/dL
CRE [5]: 0.2 mg/dL
Ca [5]: 11 mg/dL
Cl [5]: 106.6 meq/L
DBIL [5]: 0 mg/dL
GLC [5]: 184.8 mg/dL
IP [5]: 6.6 mg/dL
LDH [5]: 226 IU/L
Na [5]: 140.8 meq/L
PL [5]: 152.6 mg/dL
RALB [5]: 3 g/dL
TBIL [5]: 0.006 mg/dL
TC [5]: 78 mg/dL
TG [5]: 100.6 mg/dL
TP [5]: 5.7 g/dL
gamma-GTP [5]: 1 IU/L
TERMINAL_BW [6]: 260.1 g
TERMINAL_BW [7]: 306.4 g
TERMINAL_BW [8]: 374.4 g
APTT [6]: 21.2 s
Bas [6]: 0%
Eos [6]: 1.2%
Fbg [6]: 311 mg/dL
Hb [6]: 13.6 g/dL
Ht [6]: 40.3%
Lym [6]: 80%
MCH [6]: 21 pg
MCV [6]: 62.2 fL
Mono [6]: 2.4%
Neu [6]: 15.6%
PT [6]: 16.2 s
Plat [6]: 111.8 x10_4/uL
RBC [6]: 648.6 x10_4/ul
Ret [6]: 5.4%
WBC [6]: 117 x10_2/uL
APTT [7]: 21.3 s
Bas [7]: 0%
Eos [7]: 0.8%
Fbg [7]: 308.2 mg/dL
Hb [7]: 13.6 g/dL
Ht [7]: 40.2%
Lym [7]: 81.6%
MCH [7]: 20.3 pg
MCHC [7]: 33.8%
MCV [7]: 60.1 fL
Mono [7]: 1.2%
Neu [7]: 14.6%
PT [7]: 15.9 s
Plat [7]: 118 x10_4/uL
RBC [7]: 669.2 x10_4/ul
Ret [7]: 4.4%
WBC [7]: 116.4 x10_2/uL
APTT [8]: 23.8 s
Bas [8]: 0%
Eos [8]: 1%
Fbg [8]: 308.8 mg/dL
Hb [8]: 14.8 g/dL
Ht [8]: 43.5%
Lym [8]: 80.8%
MCV [8]: 56.9 fL
Mono [8]: 1.8%
Neu [8]: 15.2%
PT [8]: 16.8 s
Plat [8]: 108.8 x10_4/uL
RBC [8]: 764.6 x10_4/ul
Ret [8]: 2.6%
WBC [8]: 109.3 x10_2/uL
KIDNEY_L [6]: 1.1 g
KIDNEY_R [6]: 1.1 g
KIDNEY_TOTAL [6]: 2.1 g
KIDNEY_L [7]: 1.3 g
KIDNEY_R [7]: 1.3 g
KIDNEY_TOTAL [7]: 2.5 g
KIDNEY_L [8]: 1.4 g
KIDNEY_R [8]: 1.4 g
KIDNEY_TOTAL [8]: 2.8 g
LIVER [6]: 12.1 g
LIVER [7]: 13.7 g
LIVER [8]: 15.6 g
ALP [6]: 1544.4 IU/L
AST [6]: 68.4 IU/L
BUN [6]: 19 mg/dL
CRE [6]: 0.2 mg/dL
Ca [6]: 10.6 mg/dL
Cl [6]: 107 meq/L
DBIL [6]: 0 mg/dL
GLC [6]: 193 mg/dL
IP [6]: 6.9 mg/dL
LDH [6]: 228.6 IU/L
Na [6]: 142 meq/L
PL [6]: 144 mg/dL
RALB [6]: 3 g/dL
TBIL [6]: 0.004 mg/dL
TC [6]: 71.6 mg/dL
TG [6]: 120.2 mg/dL
TP [6]: 5.7 g/dL
gamma-GTP [6]: 1.2 IU/L
ALP [7]: 1416.2 IU/L
AST [7]: 67.6 IU/L
BUN [7]: 17.6 mg/dL
CRE [7]: 0.2 mg/dL
Ca [7]: 10.6 mg/dL
Cl [7]: 107 meq/L
DBIL [7]: 0 mg/dL
GLC [7]: 182.2 mg/dL
IP [7]: 6.4 mg/dL
LDH [7]: 187.6 IU/L
Na [7]: 143 meq/L
PL [7]: 155.2 mg/dL
RALB [7]: 3.1 g/dL
TBIL [7]: 0.004 mg/dL
TC [7]: 77.8 mg/dL
TP [7]: 5.8 g/dL
gamma-GTP [7]: 1 IU/L
ALP [8]: 1283.8 IU/L
AST [8]: 59.2 IU/L
BUN [8]: 17.8 mg/dL
CRE [8]: 0.2 mg/dL
Ca [8]: 10.4 mg/dL
Cl [8]: 107.6 meq/L
DBIL [8]: 0 mg/dL
GLC [8]: 182.4 mg/dL
IP [8]: 5.4 mg/dL
LDH [8]: 138.4 IU/L
Na [8]: 143 meq/L
PL [8]: 140.6 mg/dL
RALB [8]: 3.2 g/dL
TBIL [8]: 0.004 mg/dL
TC [8]: 69.8 mg/dL
TG [8]: 121.2 mg/dL
TP [8]: 6.1 g/dL
gamma-GTP [8]: 1.2 IU/L
TERMINAL_BW [9]: 228.5 g
APTT [9]: 20.7 s
